Measurements published in patent US20240361317A1, “PROBES BASED ON VOLATILE ORGANIC COMPOUNDS AND USES THEREOF FOR THE DIAGNOSIS AND PROGNOSIS OF PATHOLOGICAL CONDITIONS” (Centre National de la Recherche Scientifique, priority 2021, published 2024).
Blank lines part the entries; values can stand above or below the compound they belong to.

Assays:
[1] = molecular target: T1, β-glucuronidase (Homo sapiens, UniProt P08236); test: Plasma protocol: labeled ethanol released in headspace of plasma after adding probe; format: biochemical
T1 construct: from tissue; host or cells: human blood plasma
T1 sequence (P08236 23-651): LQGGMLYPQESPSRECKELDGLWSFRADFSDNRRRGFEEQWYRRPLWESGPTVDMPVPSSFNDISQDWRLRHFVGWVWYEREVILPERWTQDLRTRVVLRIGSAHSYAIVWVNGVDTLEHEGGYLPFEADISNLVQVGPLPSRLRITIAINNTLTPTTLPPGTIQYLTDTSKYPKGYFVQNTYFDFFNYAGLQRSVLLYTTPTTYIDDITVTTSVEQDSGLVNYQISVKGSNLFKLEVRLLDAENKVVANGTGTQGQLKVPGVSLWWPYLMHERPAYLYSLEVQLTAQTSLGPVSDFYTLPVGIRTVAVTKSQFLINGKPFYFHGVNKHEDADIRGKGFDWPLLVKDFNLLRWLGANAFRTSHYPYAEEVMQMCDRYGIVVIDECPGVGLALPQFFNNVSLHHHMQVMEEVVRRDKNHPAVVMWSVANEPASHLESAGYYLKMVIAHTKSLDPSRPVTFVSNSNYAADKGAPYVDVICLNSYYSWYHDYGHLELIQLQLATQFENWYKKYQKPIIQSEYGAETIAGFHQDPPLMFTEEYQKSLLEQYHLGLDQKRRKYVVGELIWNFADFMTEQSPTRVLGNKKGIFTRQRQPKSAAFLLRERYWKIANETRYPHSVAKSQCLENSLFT
Procedure: (§1) The plasma (approximately […]) is extracted and stored at −20° C. until analysis. An aliquot of 25 μL of plasma is sampled and inserted into a […] with an insert. This biological sample is added to 50 μL of acetate buffer solution (pH 5), protease inhibitor (1×) and 25 μL probe D5-ethyl-β-D-glucuronide at […]. After hermetic closure and agitation to the vortex of the vial, an SPME (SPME in semi-polar phase of the Car/PDMS, 1 cm long and 75 μm thick type with a 24 ga needle; Supelco) of the gas phase above the sample of a duration of 30 mi is carried out after 2 h, 4 h and 7 h of reaction. Each kinetic point requires a vial reaction, and is carried out in duplicate. The VOCs trapped on the SPME fiber are then analyzed by G-TQMS. GC-TMS detection of the ethanol isotopes (thus including ethanol-D5) is carried out with gas chromatography coupled to a triple quadrupole equipped with an E1 source (TSQ 9000, Thermo Fisher Scientific). The system is controlled by the software TSQ 9000 and the results are analyzed with the Xcalibur software (Thermo Fisher Scientific).
Blood samples were taken by the caregiver associated with the oncological service, then collected and pretreated with the CIC. This study included samples of plasma taken from 11 patients suffering from breast cancer and 11 patients suffering from lung cancer.
These patients were diagnosed, but had at the time of sampling not yet received treatment. Their response was compared to that obtained from the plasma of 4 healthy patients. The results were compared to an experimental blank wherein the probe was added, but the enzyme was not present (FIG. 3). […]
After adding the 4 probes (according to the above protocol), the quantity of the 4 isotopes of the ethanol released above the samples of the patients was measured over time. […]
(§2) According to the plasma protocol described above, the probes were used to detect the six enzymatic activities in these samples. […] The VOCs trapped on the SPME fiber are then analyzed by GC-TQMS according to the parameters defined in Tables 4 and 5. […]

[2] = molecular target: T2, β-glucuronidase of E. coli (Escherichia coli, UniProt P05804); test: Limit of detection of model β-glucuronidase in plasma matrix with the VOC probe (SPME, GC-TQMS of ethanol-D5); format: biochemical
T2 construct: purchased Sigma Aldrich
T2 sequence (P05804 whole entry): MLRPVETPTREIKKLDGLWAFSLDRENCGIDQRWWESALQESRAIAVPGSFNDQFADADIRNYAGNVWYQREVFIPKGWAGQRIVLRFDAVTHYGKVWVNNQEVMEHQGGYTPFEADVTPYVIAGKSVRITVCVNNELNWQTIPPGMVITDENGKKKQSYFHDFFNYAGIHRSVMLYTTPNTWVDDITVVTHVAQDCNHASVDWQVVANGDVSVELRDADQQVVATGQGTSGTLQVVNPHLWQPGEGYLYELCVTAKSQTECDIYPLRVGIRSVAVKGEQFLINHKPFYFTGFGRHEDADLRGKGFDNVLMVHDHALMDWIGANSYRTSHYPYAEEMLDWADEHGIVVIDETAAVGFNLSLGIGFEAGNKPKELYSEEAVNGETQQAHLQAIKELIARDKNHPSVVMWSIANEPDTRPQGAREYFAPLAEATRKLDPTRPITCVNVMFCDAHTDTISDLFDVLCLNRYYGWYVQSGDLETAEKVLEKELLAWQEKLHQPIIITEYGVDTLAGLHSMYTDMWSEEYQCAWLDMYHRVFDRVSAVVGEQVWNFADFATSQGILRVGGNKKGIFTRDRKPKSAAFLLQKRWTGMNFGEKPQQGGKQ
Procedure: as §1
The limit of detection (LOD) of a model enzyme (β-glucuronidase of E. coli; liquid solution 50% glycerol, 140 U·mL^−1; Sigma Aldrich) in plasma matrix in the presence of probe D5-ethyl-β-D-glucuronide was then determined. For this, a plasma sample for which the activity of endogenous β-glucuronidase was not detectable, was added to enzyme concentrations ranging from […] to 1.10^−13 mol·L ^−1. The amount of ethanol-D5 released was monitored before adding probe and then after 2.5, 4.5 and 7.5 h of reaction at 30° C.

[3] = molecular target: β-glucuronidase (Escherichia coli, UniProt P05804); test: Specificity study: hydrolysis of probes by the enzyme; format: biochemical
Chain of β-glucuronidase (Escherichia coli, UniProt P05804) (P05804 whole entry, the tested form may be a part): as the sequence (P05804 whole entry) above
Procedure: (§3) The detection performances of this compound in the presence of ethanol and ethanol-D5 were then verified. […] The detection ranges of ethanol-D5 and ethanol-^13C-D5 were then carried out under SPME sampling conditions developed for biological samples (30 min of sampling at 30° C.). The two isotopes were present in mixtures in solution. The limits of detection obtained are respectively […]. The SPME-GC-TQMS method therefore allows a sharp differentiation of the two isotopes according to their mass fragmentation. An experimental study was then carried out in order to evaluate the affinity of the D5-ethyl-β-D-glucuronide and ^13C-D5-ethyl-N-acetylglucosamine for their respective enzyme (β-glucuronidase and N-acetyl glucosaminidase). For this, the efficacy of hydrolysis of each of these enzymes was studied in the presence of their respective probe (FIG. 6) then in the presence of the substrate probe of its partner (FIG. 7). […] In the presence of the two substrates, each enzyme gives a signal only for the probe specific to it (FIG. 8).

[4] = system: N-acetyl glucosaminidase; test: as above; format: biochemical
Procedure: as §3

[5] = Spontaneous hydrolysis of probes in buffer solution / during the reaction; format: physicochemical; settings: acetate buffer, maximum concentration
Procedure: According to the plasma protocol described above, the probes were used to detect the six enzymatic activities in these samples. To summarize, an aliquot of 25 μL of plasma will be sampled and inserted into a 2 mL vial with an insert. This biological sample was added from 61.4 μL buffer solution (pH 5), 3.6 μL of protease inhibitor (1×) and 10 μL of one or the other of the cocktails. After hermetic closure and agitation to the vortex of the vial, an SPME (SPME in semi-polar phase of the Car/PDMS, 1 cm long and 75 μm thick type with a 24 ga needle, Supelco) of the gas phase above the sample of a duration of 30 min will be carried out after 2 h, 4 h and 7 h of reaction. Each kinetic point requires a vial reaction, and was carried out in duplicate. The VOCs trapped on the SPME fiber are then analyzed by GC-TQMS according to the parameters defined in Tables 4 and 5. Blank cocktails (cocktails in acetate buffer with no plasma) and plasma blanks (plasmas with an acetate buffer without cocktail) were carried out every day of analysis.
The responses of the probes in the plasma samples were compared to their responses in so-called “blank” samples and corresponding to the probes added to the acetate buffer alone.

[6] = system: β-glucuronidase present in the extracellular matrix; test: Ethanol-D5 in headspace of mouse tumor (MDA-MB-231, KB) and healthy liver biopsies after adding probe; settings: probe 10^−9, 10^−8 and 10^−6 M
Procedure: Thus, tests during which the tumoral and healthy biopsies were placed in the presence of decreasing concentrations of D5-ethyl-β-D-glucuronide were carried out. The probe concentration retained corresponded to the concentration for which no response of healthy tissues was obtained, whereas an enzymatic response was observed on cancer tissues.
In the context of this work, two tumor biopsies, taken on mouse models, were studied (MDA-MB-231: human breast cancer cells, KB: human nasopharynx cancer cells). Two mouse liver biopsies were used as healthy tissues. Probe solutions at 10^−7, 10^−6, 10^−4 and 10^−2 M were prepared in a PBS buffer (137 mM NaCl, 2.7 mM KCl, 10 mM Na2HPO4, 1.8 mM KH2PO4, pH 7.4).
The biopsies were rinsed with 500 μL of PBS and then placed in a vial with an insert of 2 mL. A volume of 297 μL of PBS was added to the vial. The volatile molecules present in the headspace of the vial were trapped for 30 min in order to ensure that no ethanol-D5 was detected. Then 3 μL of probe at […] were added (final probe concentration in the vial of […]). After hermetic closure and vortex agitation, the volatile compounds were preconcentrated on SPME fiber (Car/PDMS, Supelco) for 30 min and then analyzed by GC-TQMS (analysis conditions described in Table 2).

[7] = system: α-Glucosidase; test: Plasma protocol: labeled ethanol released in headspace of plasma after adding probe; format: biochemical, human; settings: Ethanol-D4; Cocktail 1; 10^−3/10^−4 mol·L^−1; Splitless
Description: (§4) In advance, the enzymatic activities present in the blood samples of 7 healthy volunteers aged 20 to 30 years were studied by means of two cocktails of distinct probes (Table 6). This study had the objective (1) to set the final composition of the cocktails, (2) to define the concentrations of the probes to add to blood samples to obtain a significant isotope response knowing that this response would not be linked to spontaneous hydrolysis of the corresponding probes, (3) to define the optimal kinetic point, (4) to have an idea of the range of response of the isotopes of ethanol in healthy plasma samples.
(§5) Furthermore, two samples per patient were carried out in order to study the potential impact on the enzymatic activities here targeted of holding the samples at room temperature for several hours (an action which can take place in hospital conditions). Thus, the first sample was transformed into plasma and then frozen in the hour following the blood sampling. The second was reserved for 5 h at […], before treatment and then freezing. The samples were all stored at −20° C. until analysis.
as §2

[8] = system: α-Mannosidase; test: as above; format: biochemical, human; settings: Ethanol-D5; Cocktail 3; 10^−3/10^−4 mol·L^−1; Splitless
Description: as §4, §5, §2

Compound: [2H]C([2H])([2H])C([2H])([2H])O[C@@H]1O[C@H](C(=O)O)[C@@H](O)[C@H](O)[C@H]1O [D5-ethyl-β-D-glucuronide]
- amount of ethanol-D5 released above plasma of patients with cancer compared to blanks and healthy patients ([1]; 11 breast cancer, 11 lung cancer patients, 4 healthy patients): significantly higher
- discernment between healthy patients and cancer patients ([1]; cocktail of 4 probes, plasma of breast and lung cancer patients vs 4 healthy): allow clear discernment between healthy patients and cancer patients
- LOD lower than threshold value of the reference detection method (para-nitrophenol glucuronide, UV) [2]: 100 times
- minimum quantity of detectable enzyme ([2]; plasma matrix): 1.10^−18 mol
- concentration at which β-glucuronidase can be detected in plasma ([2]; plasma, first results): less than 5.10^−13 M
- hydrolysis of probe by β-glucuronidase (labeled ethanol signal) [3]: has hydrolyzed its own probe
- hydrolysis of probe by N-acetyl glucosaminidase (labeled ethanol signal) [4]: does not hydrolyze
- spontaneous hydrolysis when placing in buffer solution [5]: significant spontaneous hydrolysis
- ethanol-D5 release for cancer tissues ([6]; MDA-MB-231 and KB tumor biopsies): release of this isotope was detected
- ethanol-D5 response on healthy tissues ([6]; mouse liver biopsies): no response

- Plasma response range (u.a.) [7]: 0-3000 u.a.
Compound: CCC[C@H]1C[C@H](CC)[C@@H](C)[C@H](C)[C@@H]1C [drawing 22]

- Plasma response range (u.a.) [8]: 1000-50000 u.a.
Compound: CCC[C@H]1C[C@H](CC)[C@@H](C)[C@H](C)[C@@H]1C [drawing 26]
